In patent publication US20110059043A1, “CHEMICAL COMPOUNDS” (priority 2009, published 2011):

Tests used:
[1] = test system: HCV replicon cells Huh 9B; assay: HCV replicon assay (luciferase); assay type: cell-based; details: Hepatitis C virus, reduction of replicon level by 50% vs untreated cell control, 72 h
Procedure: (§1) HCV replicon cells Huh 9B (ReBlikon), containing the firefly luciferase—ubiquitin—neomycin phosphotransferase fusion protein and EMCV-IRES driven HCV polyprotein with cell culture adaptive mutations.
(§2) Cells were cultured at 37° C. in a 5% CO2 environment and split twice a week on seeding at 2×10^6 cells/flask on day 1 and 1×10^6 3 days later. G418 at 0.5 mg/ml was added to the culture medium but not the assay medium. The culture medium consisted of DMEM with […] glucose and glutamax (Gibco 61965-026) supplemented with 1×non-essential amino acids (Invitrogen 11140-035), penicillin (100 IU/ml)/streptomycin (100 μg/ml) (Invitrogen 15140-122), FCS (10%, 50 ml) and […] (Invitrogen 10131-027) & 10% Australian foetal calf serum (Invitrogen 10099-141).
(§3) A flask of cells was trypsinised and a cell count carried out. Cells were diluted to 100,000 cells/ml and 100 μl of this used to seed one opaque white 96-well plate (for the replicon assay) and one flat-bottomed clear plate (for the tox assay) for every five compounds to be tested for IC50. Wells G12 and H12 were left empty in the clear plate as the blank. Plates were then incubated at 37° C. in a 5% CO2 environment for 24 h.
(§4) On the following day compound dilutions are made up in medium at twice their desired final concentration in a clear round bottomed plate. All dilutions have a final DMSO concentration of 1%.
(§5) Once the dilution plate had been made up, controls and compounds were transferred to the assay plates (containing the cells) at 100 μl/well in duplicate wells. Exception: no compound was added to wells A1 and A2 of either plate and 100 μl of 1% DMSO was added to these instead. Plates were then incubated at 37° C. with 5% CO2 for 72 h.
At the end of the incubation time, the cells in the white plate were harvested by washing in PBS (100 μL per well) and gently tapping dry before addition of […] of lysis buffer (25 mM tris-phosphate, 8 mM MgCl2, 1 mM DTT, 1% Triton X-100, 15% glycerol. pH to 7.8 using KH2PO4 prior to triton and glycerol addition. Substrate was prepared: 23.5 mM beetle luciferin (Promega E1603), 26 mM ATP (Sigma O-2060) in […] Tris buffer pH 7.8 aliquoted and stored at −80° C. was thawed and diluted 1:50 in luciferase assay buffer (20 mM Tricine (Sigma T-0377), 1.07 mM magnesium carbonate hydroxide (Sigma M-5671), 0.1 mM EDTA (Sigma E-5134), 2.67 mM MgSO4(BDH 101514Y), 33.3 mM dithiothreitol (Sigma 150460) pH 7.8).
The M injector of the microplate luminometer (Lmax, Molecular Devices) was primed with 5×300 μl injections of the diluted substrate. After 5-60 min incubation in lysis buffer at room temperature, a plate was inserted into the luminometer and 100 μl luciferase assay reagent was added by the injector on the luminometer. The signal was measured using a 1 second delay followed by a 4 second measurement programme. The IC50, the concentration of the drug required for reducing the replicon level by 50% in relation to the untreated cell control value, can be calculated from the plot of the percentage reduction of the luciferase activity vs. drug concentration.

[2] = test system: HCV replicon cells Huh 9B; assay type: cell-based; details: concentration reducing total cell area by 50% relative to DMSO controls; 72 h
Procedure: as §1, §2, §3, §4, §5
The clear plate was stained with 100 μl 0.5% methylene blue in 50% ethanol at room temperature for lh, followed by solvation of the absorbed methylene blue in 100 μl per well of 1% lauroylsarcosine. Absorbance of the plate was measured on a microplate spectrophotometer (Molecular Devices) and the absorbance for each concentration of compound expressed as a proportion of the relative DMSO control. The TD50, the concentration of drug required to reduce the total cell area by 50% relative to the DMSO controls, can be calculated by plotting the absorbance at 620 nm minus background against drug concentration.

[3] = molecular target: T1, Recombinant HCV polymerase (BK strain) (Hepatitis C virus genotype 1b, UniProt P26663); assay: HCV polymerase enzyme assay (radiometric [33P]-UTP incorporation); assay type: biochemical, HCV 1b
T1 construct: Recombinant HCV polymerase (BK strain) was expressed and purified from E. coli with a 21 amino acid C-terminal deletion; His6; made in house; host or cells: E. coli
T1 sequence (P26663 2420-2989): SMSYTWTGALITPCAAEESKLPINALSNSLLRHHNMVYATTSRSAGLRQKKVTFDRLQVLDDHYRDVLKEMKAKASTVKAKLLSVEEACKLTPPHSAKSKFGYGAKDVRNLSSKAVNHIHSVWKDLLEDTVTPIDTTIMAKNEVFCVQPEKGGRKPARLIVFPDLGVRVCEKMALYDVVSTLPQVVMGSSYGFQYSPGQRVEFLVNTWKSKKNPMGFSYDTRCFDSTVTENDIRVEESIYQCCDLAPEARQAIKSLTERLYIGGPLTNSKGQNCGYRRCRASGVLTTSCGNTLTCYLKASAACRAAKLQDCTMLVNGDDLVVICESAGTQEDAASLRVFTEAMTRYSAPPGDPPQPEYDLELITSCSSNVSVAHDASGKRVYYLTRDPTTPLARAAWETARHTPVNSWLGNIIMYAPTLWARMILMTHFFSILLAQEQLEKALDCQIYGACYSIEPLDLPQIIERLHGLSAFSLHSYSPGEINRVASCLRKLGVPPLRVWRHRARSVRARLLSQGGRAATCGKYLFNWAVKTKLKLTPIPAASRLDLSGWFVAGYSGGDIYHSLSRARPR
Procedure: Compounds were tested for inhibition of HCV polymerase using a radiometric [^33P]-UTP incorporation assay and a biotinylated U13:PolyA primer:template RNA substrate.
Recombinant HCV polymerase (BK strain) was expressed and purified from E. coli with a 21 amino acid C-terminal deletion and a His6-tag. The general assay buffer consisted of 20 mM Tris (pH 7.5), 25 mM KCl, 5 mM MgCl2, 3 mM DTT, 0.5 mg/ml BSA, 0.01% Tween20. The standard reaction, in 96 well plates, contained 10 μl of diluted compound, 50 μl of substrate and 40 μl of enzyme. Compounds, supplied as 10 mM stocks in DMSO, were diluted initially in neat DMSO, and subsequently buffer was added to give a DMSO concentration of 30%; 10 μl of this was added to the assay plate to give a final concentration in the 100 μl assay of 3% DMSO. The biotinylated U13:PolyA RNA substrate was pre-annealed with 40 μM 5′-biotinylated U13 (Dharmacon) and 213 μg/ml PolyA (Amersham Biosciences) in water incubated at 70° C. for 5 minutes before being cooled on ice. Substrate (50 μl) was added in buffer to give a final concentration in the 100 μl assay of 125 nM biotinylated U13:0.63 μg/ml PolyA and 200 nM UTP with 0.4 μCi [^33P]-UTP per well (Perkin Elmer). The reaction was initiated by the addition of 40 μl of enzyme in buffer to give 100 nM final concentration. The reaction was incubated at 25° C. for 100 minutes and then stopped by addition of 100 μl of 100 mM EDTA. The samples were then transferred to 96 well Streptavidin-coated FlashPlates (Perkin Elmer) and incubated at room temperature for ˜1 hour to allow binding to occur. The plates were then washed three times with phosphate-buffered saline containing 0.05% Tween20 in an automated plate washer to remove unincorporated [^33P]-UTP, and then counted in a
Each plate included a set of positive controls (no compound, maximum signal) and negative controls (no enzyme, minimum signal) and in each run at least one reference is compound was included to validate the assay. The IC50, concentration required to inhibit the enzyme activity by 50%, was calculated using an 8-point IC50 curve and fitted using the program XLfit (IDBS).

Compound	IC50 [1]	Replicon Assay Value TD50 [2]	IC50 [3]
COCCCOc1ccc(Cl)cc1C(=O)NC1N=C(c2c(Cl)cc(Cl)cc2Cl)c2ccccc2NC1=O (stereo not drawn) [Example 1, 5-chloro-2-(3-methoxypropoxy)-N-(2-oxo-5-(2,4,6-trichlorophenyl)-2,3-dihydro-1H-benzo[e][1,4]diazepin-3-yl)benzamide]	210 nM	>25 µM	354 nM
CO[C@@H](C)COc1ccc(Cl)cc1C(=O)NC1N=C(c2c(Cl)cc(Cl)cc2Cl)c2ccccc2NC1=O (stereo partly drawn) [Example 2, 5-Chloro-2-((S)-2-methoxypropoxy)-N-(2-oxo-5-(2,4,6-trichlorophenyl)-2,3-dihydro-1H-benzo[e][1,4]diazepin-3-yl)benzamide]	382 nM	>25 µM	167 nM
CCOCCOc1ccc(Cl)cc1C(=O)NC1N=C(c2c(Cl)cc(Cl)cc2Cl)c2ccccc2NC1=O (stereo not drawn) [Example 3, 5-Chloro-2-(2-ethoxyethoxy)-N-(2-oxo-5-(2,4,6-trichlorophenyl)-2,3-dihydro-1H-benzo[e][1,4]diazepin-3-yl)benzamide]	82.9 nM	16.177 µM	111 nM
COCC(C)Oc1ccc(Cl)cc1C(=O)NC1N=C(c2c(Cl)cc(Cl)cc2Cl)c2ccccc2NC1=O (stereo not drawn) [Example 4, 5-Chloro-2-(1-methoxypropan-2-yloxy)-N-(2-oxo-5-(2,4,6-trichlorophenyl)-2,3-dihydro-1H-benzo[e][1,4]diazepin-3-yl)benzamide]	304 nM	>25 µM	261 nM
COCCOCCOc1ccc(Cl)cc1C(=O)NC1N=C(c2c(Cl)cc(Cl)cc2Cl)c2ccccc2NC1=O (stereo not drawn) [Example 5, 5-Chloro-2-(2-(2-methoxyethoxy)ethoxy)-N-(2-oxo-5-(2,4,6-trichlorophenyl)-2,3-dihydro-1H-benzo[e][1,4]diazepin-3-yl)benzamide]	490 nM	15.913 µM	209 nM
CC(C)COCCOc1ccc(Cl)cc1C(=O)NC1N=C(c2c(Cl)cc(Cl)cc2Cl)c2ccccc2NC1=O (stereo not drawn) [Example 6, 5-Chloro-2-(2-isobutoxyethoxy)-N-(2-oxo-5-(2,4,6-trichlorophenyl)-2,3-dihydro-1H-benzo[e][1,4]diazepin-3-yl)benzamide]	849 nM	10.604 µM	715 nM
CCCCCOCCOc1ccc(Cl)cc1C(=O)NC1N=C(c2c(Cl)cc(Cl)cc2Cl)c2ccccc2NC1=O (stereo not drawn) [Example 7, 5-Chloro-N-(2-oxo-5-(2,4,6-trichlorophenyl)-2,3-dihydro-1H-benzo[e][1,4]diazepin-3-yl)-2-(2-(pentyloxy)ethoxy)benzamide]	1450 nM	11.806 µM	662 nM
CCOCCOCCOc1ccc(Cl)cc1C(=O)NC1N=C(c2c(Cl)cc(Cl)cc2Cl)c2ccccc2NC1=O (stereo not drawn) [Example 8, 5-Chloro-2-(2-(2-ethoxyethoxy)ethoxy)-N-(2-oxo-5-(2,4,6-trichlorophenyl)-2,3-dihydro-1H-benzo[e][1,4]diazepin-3-yl)benzamide]	1340 nM	11.724 µM	1070 nM
O=C(NC1N=C(c2c(Cl)cc(Cl)cc2Cl)c2ccccc2NC1=O)c1cc(Cl)ccc1OCC1CCCO1 (stereo not drawn) [Example 9, 5-Chloro-N-(2-oxo-5-(2,4,6-trichlorophenyl)-2,3-dihydro-1H-benzo[e][1,4]diazepin-3-yl)-2-((tetrahydrofuran-2-yl)methoxy)benzamide]	610 nM	>25 µM	296 nM
CCCCOCCOc1ccc(Cl)cc1C(=O)NC1N=C(c2c(Cl)cc(Cl)cc2Cl)c2ccccc2NC1=O (stereo not drawn) [Example 10, 2-(2-Butoxyethoxy)-5-chloro-N-(2-oxo-5-(2,4,6-trichlorophenyl)-2,3-dihydro-1H-benzo[e][1,4]diazepin-3-yl)benzamide]	338 nM	>25 µM	757 nM
O=C(NC1N=C(c2c(Cl)cc(Cl)cc2Cl)c2ccccc2NC1=O)c1cc(Cl)ccc1OCCOc1ccccc1 (stereo not drawn) [Example 11, 5-Chloro-N-(2-oxo-5-(2,4,6-trichlorophenyl)-2,3-dihydro-1H-benzo[e][1,4]diazepin-3-yl)-2-(2-phenoxyethoxy)benzamide]	1150 nM	>25 µM	864 nM
CN(C)CCCOc1ccc(Cl)cc1C(=O)NC1N=C(c2c(Cl)cc(Cl)cc2Cl)c2ccccc2NC1=O (stereo not drawn) [Example 12, 5-Chloro-2-(3-(dimethylamino)propoxy)-N-(2-oxo-5-(2,4,6-trichlorophenyl)-2,3-dihydro-1H-benzo[e][1,4]diazepin-3-yl)benzamide]	5510 nM	4.253 µM	3130 nM
CN(C)CCOCCOc1ccc(Cl)cc1C(=O)NC1N=C(c2c(Cl)cc(Cl)cc2Cl)c2ccccc2NC1=O (stereo not drawn) [Example 13, 5-Chloro-2-(2-(2-(dimethylamino)ethoxy)ethoxy)-N-(2-oxo-5-(2,4,6-trichlorophenyl)-2,3-dihydro-1H-benzo[e][1,4]diazepin-3-yl)benzamide]	3170 nM	6.754 µM	1700 nM
COCCOc1ccc(Cl)cc1C(=O)NC1N=C(c2c(Cl)cc(Cl)cc2Cl)c2ccccc2NC1=O (stereo not drawn) [Example 14, 5-Chloro-2-(2-methoxyethoxy)-N-(2-oxo-5-(2,4,6-trichlorophenyl)-2,3-dihydro-1H-benzo[e][1,4]diazepin-3-yl)benzamide]	83.3 nM	19.834 µM	154 nM
COCCOc1ccccc1C(=O)NC1N=C(c2c(Cl)cc(Cl)cc2Cl)c2ccccc2NC1=O (stereo not drawn) [Example 15, 2-(2-Methoxyethoxy)-N-(2-oxo-5-(2,4,6-trichlorophenyl)-2,3-dihydro-1H-benzo[e][1,4]diazepin-3-yl)benzamide]	110 nM	25.845 µM	299 nM
